Reference: BindingDB's records for doi:10.1021/jm0204587 (University of Pennsylvania, 2003)

Biological target: T1, Dimer of Gag-Pol polyprotein [501-599] (Human immunodeficiency virus 1, UniProt P03367)
T1 construct: 501-599
Assay: Protease Inhibition Assay
Conditions: pH 5.5; 30 °C
Method: All enzyme assays were performed under initial velocity and steady-state conditions. The conditions for the enzyme catalyzed hydrolysis of the cleavage site peptide VSQN-(beta-naphthylalanine)-PIV were established with respect to time and enzyme concentration to yield linear initial velocity data. […] The detection of product was monitored with fluorescence (excitation 270 nm, emission 330 nm).

First: CC(C)C[C@@]1(C2C=N[C@@](Cc3ccccc3)(C[C@H](O)[C@H](Cc3ccccc3)NC(=O)OC(C)(C)C)C2=O)N=CC([C@@H](Cc2ccccc2)C(N)=O)C1=O (some centres not stated) [Pyrrolinone deriv. 1]
Second: CC(C)C[C@@]1(C2C=N[C@@](Cc3ccccc3)(C[C@H](O)[C@H](Cc3ccccc3)NC(=O)O[C@H]3CCOC3)C2=O)N=CC([C@@H](Cc2ccccc2)C(N)=O)C1=O (some centres not stated) [Pyrrolinone deriv. 2]
The IC50 of the first is 7.7-fold higher: 10 nM for the first, 1.3 nM for the second. The second is the more potent here.

Going from `CC(C)(C)OC(=O)N[C@@H](Cc1ccccc1)[C@@H](O)C[C@]1(Cc2ccccc2)N=CC(C2c3ccccc3C[C@H]2O)C1=O` (some centres not stated) [Pyrrolinone deriv. 6] to `O=C(N[C@@H](Cc1ccccc1)[C@@H](O)C[C@]1(Cc2ccccc2)N=CC(C2c3ccccc3C[C@H]2O)C1=O)O[C@H]1CCOC1` (stereo partly drawn) [(3S)-oxolan-3-yl N-[(2S,3S)-4-[(2S)-2-benzyl-4-[(2R)-2-hydroxy-2,3-dihydro-1H-inden-1-yl]-3-oxo-2,3-dihydro-1H-pyrrol-2-yl]-3-hydroxy-1-phenylbutan-2-yl]carbamate], the IC50 falls from 11.9 nM to 2 nM (6-fold).

First: CC(C)C[C@H](NC(=O)[C@H](Cc1ccccc1)C[C@H](O)[C@H](Cc1ccccc1)NC(=O)OC(C)(C)C)C(=O)N[C@@H](Cc1ccccc1)C(N)=O [Hydroxyethylene dipeptide isostere]
Second: CC(C)(C)OC(=O)N[C@@H](Cc1ccccc1)[C@@H](O)C[C@@H](Cc1ccccc1)C(=O)NC1c2ccccc2C[C@H]1O (stereo partly drawn) [tert-butyl N-[(2S,3S,5R)-5-benzyl-3-hydroxy-5-{[(2R)-2-hydroxy-2,3-dihydro-1H-inden-1-yl]carbamoyl}-1-phenylpentan-2-yl]carbamate]
The IC50 of the first is 2-fold higher: 0.6 nM for the first, 0.3 nM for the second. The second is the more potent here.

With `O=C(N[C@@H](Cc1ccccc1)[C@@H](O)C[C@@H](Cc1ccccc1)C(=O)NC1c2ccccc2C[C@H]1O)O[C@H]1CCOC1` (stereo partly drawn) [(3S)-oxolan-3-yl N-[(2S,3S,5R)-5-benzyl-3-hydroxy-5-{[(2R)-2-hydroxy-2,3-dihydro-1H-inden-1-yl]carbamoyl}-1-phenylpentan-2-yl]carbamate] the IC50 was 0.03 nM.
